Literature values in US9999577B2, “Cream gels comprising at least one retinoid and benzoyl peroxide” (GALDERMA RESEARCH & DEVELOPMENT, priority 2006, dated 2018).
Where two headings read alike, the source gives them in different places.

What was measured:
[1] = not given; remark: listed apart in the source
[2] = for Decomposition time of benzoyl peroxide: 40° C.

With `COc1ccc(-c2ccc3cc(C(=O)O)ccc3c2)cc1C12CC3CC(CC(C3)C1)C2` [adapalene, 6-(3-(1-adamantyl)-4-methoxyphenyl)-2-naphthoic acid] as the compound, how does the “Retinoid decomposition in presence of benzoyl peroxide formulation” value (during 24 hours) read?
The value was “no decomposition”.

Which “Solubility of benzoyl peroxide” value ([1]; solvent PEG 400) does the source give for `O=C(OOC(=O)c1ccccc1)c1ccccc1` [benzoyl peroxide] here?
Its value is 39.6 mg/g.

What about the “Solubility of benzoyl peroxide” value ([1]; solvent ethanol) of the same compound?
Its value is 17.9 mg/g.

What about the “Solubility of benzoyl peroxide” value ([1]; solvent glycerol) of the same compound?
The value was 0.15 mg/g.

And the “Solubility of benzoyl peroxide” value ([1]; solvent propylene glycol)?
Its value is 2.95 mg/g.

What about the “Solubility of benzoyl peroxide” value ([1]; solvent propylene glycol/water (75:25)) of the same compound?
Its value is 0.36 mg/g.

And the “Solubility of benzoyl peroxide” value ([1]; solvent water)?
The value was 0.000155 mg/g.

What about the “Decomposition of benzoyl peroxide in suspension” value ([2]; dispersed form in water and propylene glycol, storing for 90 days) of the same compound?
Its value is “not decomposed”.

And the “Decomposition time of benzoyl peroxide” value ([2]; in PEG 400 (0.5 mg/g))?
The value was 1.4 days.

What about the “Decomposition time of benzoyl peroxide” value ([2]; in ethanol) of the same compound?
The value was 29 days.

And the “Decomposition time of benzoyl peroxide” value ([2]; in propylene glycol)?
Its value is 53 days.

What does the source list for `CC1=C(/C=C/C(C)=C/C=C/C(C)=C/C(=O)O)C(C)(C)CCC1` [tretinoin]?
Retinoid decomposing in presence of benzoyl peroxide formulation (2 hours): 50%; Retinoid decomposing in presence of benzoyl peroxide formulation (4 hours): 95%
